# Columns and labels:
# Format in all cases: cell-based
# SW480 (G12V) cells = assay: Cell viability assay (CELLTITER-GLO), SW480 cells; conditions: Homo sapiens, 72 h, Inhibition of cancerous cells, 3 days incubation, luminescence
# Description: (§1) AsPC-1, H358, and SW48 cells were cultured in RPMI 1640 media supplemented with 10% fetal bovine serum, streptomycin, and penicillin. Lovo and SW480 cells were cultured in DMEM media supplemented with 10% fetal bovine serum, streptomycin, and penicillin. The cell lines were plated in their respective medium supplemented with 2.5% fetal bovine serum, streptomycin, and penicillin. All cell lines were plated in white walled 96-well plates at 2,000 cells/well or 384-well plates at 500 cells/well, except Lovo, which were plated at 4,000 or 1,000 cells/well, respectively. The cells were incubated in DMSO (control) or a compound for 3 days at 37° C. under 5% CO2. A CELLTITER-GLO® reagent ([…] was then added to each well. After a 10 min incubation with shaking, luminescence was measured using an ENVISION® multimode plate reader. IC50 values are summarized in Table 1.
# H358 (G12C) cells = assay: Cell viability assay (CELLTITER-GLO), H358 cells; conditions: Homo sapiens, NCI-H358, 72 h, Inhibition of cancerous cells, 3 days incubation, luminescence
# Description: as §1
# SW48 (wt) cells = assay: Cell viability assay (CELLTITER-GLO), SW48 cells; conditions: Homo sapiens, 72 h, Inhibition of cancerous cells, 3 days incubation, luminescence
# Description: as §1
# Lovo (G13D) cells = assay: Cell viability assay (CELLTITER-GLO), Lovo cells; conditions: Homo sapiens, 72 h, Inhibition of cancerous cells, 3 days incubation, luminescence
# Description: as §1
# AsPC-1 (G12D) cells = assay: Cell viability assay (CELLTITER-GLO), AsPC-1 cells; conditions: Homo sapiens, ASPC1, 72 h, Inhibition of cancerous cells, 3 days incubation, luminescence
# Description: as §1
IC50 (SW480 (G12V) cells),IC50 (H358 (G12C) cells),IC50 (SW48 (wt) cells),IC50 (Lovo (G13D) cells),IC50 (AsPC-1 (G12D) cells),Compound
0.57 µM,0.85 µM,1 µM,0.45 µM,–,"CNCc1ccccc1-c1csc([C@@H](C)Nc2nc(C)nc3cc(OCCCCCOC(=O)CC45CC6CC(CC(C6)C4)C5)c(OC)cc23)c1 [Compound A45, 5-((6-Methoxy-2-methyl-4-(((R)-1-(4-(2-((methylamino)methyl)phenyl)thiophen-2-yl)ethyl)amino)quinazolin-7-yl)oxy)pentyl 2-((3r,5r,7r)-adamantan-1-yl)acetate]"
0.58 µM,0.76 µM,0.64 µM,0.43 µM,–,"CNCc1ccccc1-c1csc([C@@H](C)Nc2nc(C)nc3cc(OCCOCCOC(=O)CC45CC6CC(CC(C6)C4)C5)c(OC)cc23)c1 [Compound A47, 2-(2-((6-Methoxy-2-methyl-4-(((R)-1-(4-(2-((methylamino)methyl)phenyl)-thiophen-2-yl)ethyl)amino)quinazolin-7-yl)oxy)ethoxy)ethyl 2-((3r,5r,7r)-adamantan-1-yl)acetate]"
3.9 µM,6.7 µM,5.1 µM,2.9 µM,–,"COc1cc2c(N[C@H](C)c3cccc(Br)c3)nc(C)nc2cc1OCCCCCCCC(=O)N[C@H]1CCC(=O)NC1=O [Compound A77, 8-((4-(((R)-1-(3-Bromophenyl)ethyl)amino)-6-methoxy-2-methylquinazolin-7-yl)oxy)-N—((S)-2,6-dioxopiperidin-3-yl)octanamide]"
0.61 µM,1.2 µM,0.89 µM,0.43 µM,–,"CNCc1ccccc1-c1csc([C@H](C)Nc2nc(C)nc3cc(OCCNC(=O)CC45CC6CC(CC(C6)C4)C5)c(OC)cc23)c1 [Compound A52, 2-((3r,5r,7r)-Adamantan-1-yl)-N-(2-((6-methoxy-2-methyl-4-(((S)-1-(4-(2-((methylamino)methyl)phenyl)thiophen-2-yl)ethyl)amino)quinazolin-7-yl)oxy)ethyl)acetamide]"
0.42 µM,0.65 µM,0.56 µM,0.34 µM,–,"COc1cc2c(N[C@H](C)c3cccc(Br)c3)nc(C)nc2cc1OCCCCCCCN1C(C)(C)CCCC1(C)C [Compound A74, (R)—N-(1-(3-Bromophenyl)ethyl)-6-methoxy-2-methyl-7-((7-(2,2,6,6-tetramethyl-piperidin-1-yl)heptyl)oxy)quinazolin-4-amine]"
1.9 µM,5.4 µM,3.6 µM,2.2 µM,–,"COc1cc2c(N[C@H](C)c3cccc(Br)c3)nc(C)nc2cc1OCCCCCCCc1ccncc1 [Compound A43, (R)—N-(1-(3-Bromophenyl)ethyl)-6-methoxy-2-methyl-7-((7-(pyridin-4-yl)heptyl)-oxy)quinazolin-4-amine]"
0.57 µM,0.94 µM,0.57 µM,0.58 µM,–,"CNCc1ccccc1-c1csc([C@H](C)Nc2nc(C)nc3cc(OCCOCCOC(=O)CC45CC6CC(CC(C6)C4)C5)c(OC)cc23)c1 [Compound A48, 2-(2-((6-Methoxy-2-methyl-4-(((S)-1-(4-(2-((methylamino)methyl)phenyl)-thiophen-2-yl)ethyl)amino)quinazolin-7-yl)oxy)ethoxy)ethyl 2-((3r,5r,7r)-adamantan-1-yl)acetate]"
0.62 µM,1.1 µM,0.75 µM,0.47 µM,–,"CNCc1ccccc1-c1csc([C@@H](C)Nc2nc(C)nc3cc(OCCNC(=O)CC45CC6CC(CC(C6)C4)C5)c(OC)cc23)c1 [Compound A51, 2-((3r,5r,7r)-Adamantan-1-yl)-N-(2-((6-methoxy-2-methyl-4-(((R)-1-(4-(2-((methylamino)methyl)phenyl)thiophen-2-yl)ethyl)amino)quinazolin-7-yl)oxy)ethyl)acetamide]"
0.71 µM,1.2 µM,0.59 µM,0.46 µM,–,"COc1cc2c(N[C@H](C)c3cccc(Br)c3)nc(C)nc2cc1OCCCCCCCN1CCC(C(F)(F)F)CC1 [Compound A24, (R)—N-(1-(3-Bromophenyl)ethyl)-6-methoxy-2-methyl-7-((7-(4-(trifluoromethyl)-piperidin-1-yl)heptyl)oxy)quinazolin-4-amine]"
1.2 µM,1.5 µM,1.1 µM,1.5 µM,–,"CNCc1ccccc1-c1csc([C@H](C)Nc2nc(C)nc3cc(OCCCCCOC(=O)CC45CC6CC(CC(C6)C4)C5)c(OC)cc23)c1 [Compound A46, 5-((6-Methoxy-2-methyl-4-(((S)-1-(4-(2-((methylamino)methyl)phenyl)thiophen-2-yl)ethyl)amino)quinazolin-7-yl)oxy)pentyl 2-((3r,5r,7r)-adamantan-1-yl)acetate]"
1.2 µM,1.9 µM,2 µM,0.55 µM,–,"COc1cc2c(N[C@H](C)c3cccc(Br)c3)nc(C)nc2cc1OCCCCCCCN1CCCC(F)(F)C1 [Compound A44, (R)—N-(1-(3-Bromophenyl)ethyl)-7-((7-(3,3-difluoropiperidin-1-yl)heptyl)oxy)-6-methoxy-2-methylquinazolin-4-amine]"
0.59 µM,0.73 µM,0.66 µM,0.25 µM,–,"COc1cc2c(N[C@H](C)c3cccc(Br)c3)nc(C)nc2cc1OCCCCCCCN1CCOCC1 [Compound A75, (R)—N-(1-(3-Bromophenyl)ethyl)-6-methoxy-2-methyl-7-((7-morpholinoheptyl)-oxy)quinazolin-4-amine]"
0.55 µM,0.91 µM,0.9 µM,0.45 µM,–,"CNCc1ccccc1-c1csc([C@@H](C)Nc2nc(C)nc3cc(OCCOCCNC(=O)CC45CC6CC(CC(C6)C4)C5)c(OC)cc23)c1 [Compound A5, 2-((3r,5r,7r)-adamantan-1-yl)-N-(2-(2-((6-methoxy-2-methyl-4-(((R)-1-(4-(2-((methylamino)methyl)phenyl)thiophen-2-yl)ethyl)amino)quinazolin-7-yl)oxy)ethoxy)ethyl)-acetamide]"
0.61 µM,0.61 µM,0.5 µM,0.34 µM,–,"CNCc1ccccc1-c1csc([C@H](C)Nc2nc(C)nc3cc(OCCCCCCCN4CCCCC4)c(OC)cc23)c1 [Compound A3, (S)-6-methoxy-2-methyl-N-(1-(4-(2-((methylamino)methyl)phenyl)thiophen-2-yl)ethyl)-7-((7-(piperidin-1-yl)heptyl)oxy)quinazolin-4-amine]"
0.76 µM,0.97 µM,1 µM,0.48 µM,–,"CNCc1ccccc1-c1csc([C@H](C)Nc2nc(C)nc3cc(OCCOCCNC(=O)CC45CC6CC(CC(C6)C4)C5)c(OC)cc23)c1 [Compound A6, 2-((3r,5r,7r)-adamantan-1-yl)-N-(2-(2-((6-methoxy-2-methyl-4-(((S)-1-(4-(2-((methylamino)methyl)phenyl)thiophen-2-yl)ethyl)amino)quinazolin-7-yl)oxy)ethoxy)-ethyl)acetamide]"
–,–,–,–,3.1 µM,"CNCc1ccccc1-c1csc([C@H](C)Nc2nc(C)nc3cc(OCCCCCCC(C)(C)C)c(OC)cc23)c1 [Compound A59, (S)-7-((7,7-Dimethyloctyl)oxy)-6-methoxy-2-methyl-N-(1-(4-(2-((methylamino)-methyl)phenyl)thiophen-2-yl)ethyl)quinazolin-4-amine]"
0.58 µM,1.2 µM,0.6 µM,0.54 µM,–,"COc1cc2c(N[C@H](C)c3cccc(Br)c3)nc(C)nc2cc1OCCCCCCCN1CCN(C(C)=O)CC1 [Compound A26, (R)-1-(4-(7-((4-((1-(3-Bromophenyl)ethyl)amino)-6-methoxy-2-methyl-quinazolin-7-yl)oxy)heptyl)piperazin-1-yl)ethan-1-one]"
0.78 µM,1.4 µM,1.8 µM,0.5 µM,–,"COc1cc2c(N[C@H](C)c3cccc(Br)c3)nc(C)nc2cc1OCCCCCCCN1CCCCC1=O [Compound A25, (R)-1-(7-((4-((1-(3-Bromophenyl)ethyl)amino)-6-methoxy-2-methylquinazolin-7-yl)oxy)heptyl)piperidin-2-one]"
0.51 µM,0.47 µM,0.33 µM,0.18 µM,–,"CNCc1ccccc1-c1csc([C@@H](C)Nc2nc(C)nc3cc(OCCCCCCCN4CCCCC4)c(OC)cc23)c1 [Compound A2, (R)-6-methoxy-2-methyl-N-(1-(4-(2-((methylamino)methyl)phenyl)thiophen-2-yl)ethyl)-7-((7-(piperidin-1-yl)heptyl)oxy)quinazolin-4-amine]"
0.56 µM,1.3 µM,1.7 µM,0.78 µM,–,"COc1cc2c(N[C@H](C)c3cccc(Br)c3)nc(C)nc2cc1OCCCCCCC(=O)N1CCCCC1 [Compound A36, (R)-7-((4-((1-(3-Bromophenyl)ethyl)amino)-6-methoxy-2-methylquinazolin-7-yl)oxy)-1-(piperidin-1-yl)heptan-1-one]"

Compound,IC50 (SW480 (G12V) cells),IC50 (H358 (G12C) cells),IC50 (SW48 (wt) cells),IC50 (Lovo (G13D) cells),IC50 (AsPC-1 (G12D) cells)
"COc1cc2c(N[C@H](C)c3cccc(Br)c3)nc(C)nc2cc1OCCCCc1ccncc1 [Compound A73, (R)—N-(1-(3-Bromophenyl)ethyl)-6-methoxy-2-methyl-7-(4-(pyridin-4-yl)-butoxy)quinazolin-4-amine]",1 µM,2.6 µM,4.1 µM,1.4 µM,–

# From patent publication US20240197888A1, “SOS1 PROTEIN DEGRADERS, PHARMACEUTICAL COMPOSITIONS THEREOF, AND THEIR THERAPEUTIC APPLICATIONS” (BioTheryX, Inc., priority 2021, published 2024)
